The text below walks through data of US10323060B2, “Benzoic acid derivatives of bile acid as FXR/TGR5 agonists and methods of use thereof” (ENANTA PHARMACEUTICALS, INC., priority 2016, dated 2019).

pEC50: −log10 of the molar value.

The target of this assay is human FXR (NR1H4) (Homo sapiens (Human), UniProt Q96RI1). Kind of assay: Human FXR (NR1H4) Assay (luciferase reporter, Indigo Bioscience kit). As to Efficacy (%): efficacy normalized to CDCA set as 100%. In kind it is cell-based. The following applies: for pEC50: FXR agonistic potency range, CHO reporter cells expressing human NR1H4, 22 hours incubation; for Emax: read-out: Efficacy (%). From the text:
Assays Human FXR (NR1H4) Assay
Determination of a ligand mediated Gal4 promoter driven transactivation to quantify ligand binding mediated activation of FXR. FXR Reporter Assay kit purchased from Indigo Bioscience (Catalogue number: IB00601) to determine the potency and efficacy of compound developed by Enanta that can induce FXR activation. The principle application of this reporter assay system is to quantify functional activity of human FXR. The assay utilizes non-human mammalian cells, CHO (Chinese hamster ovary) cells engineered to express human NR1H4 protein (referred to as FXR). Reporter cells also incorporate the cDNA encoding beetle luciferase which catalyzes the substrates and yields photon emission. Luminescence intensity of the reaction is quantified using a plate-reading luminometer, Envision. Reporter Cells include the luciferase reporter gene functionally linked to an FXR responsive promoter. Thus, quantifying changes in luciferase expression in the treated reporter cells provides a sensitive surrogate measure of the changes in FXR activity. […] The assay is according to the manufacturer's instructions. In brief, the assay was performed in white, 96 well plates using final volume of 100 ul containing cells with different doses of compounds. Retrieve Reporter Cells from −80° C. storage. Perform a rapid thaw of the frozen cells by transferring a 10 ml volume of 37° C. cell recovery medium into the tube of frozen cells. Recap the tube of Reporter Cells and immediately place it in a 37° C. water bath for 5-10 minutes. Retrieve the tube of Reporter Cell Suspension from the water bath. Sanitize the outside surface of the tube with a 70% alcohol swab, and then transfer it into the cell culture hood. Dispense 90 μl of cell suspension into each well of the 96-well Assay Plate. Transfer the plate into 37° C. incubator, allowing the cells adherent to the bottom of the well. Dilute compounds in Dilution Plate (DP), and administrate to cells at Assay Plate (AP). DMSO content of the samples was kept at 0.2%. Cells were incubated for additional 22 hours before luciferase activities were measured. Thirty minutes before intending to quantify FXR activity, remove Detection Substrate and Detection Buffer from the refrigerator and place them in a low-light area so that they may equilibrate to room temperature. Remove the plate's lid and discard all media contents by ejecting it into an appropriate waste container. Gently tap the inverted plate onto a clean absorbent paper towel to remove residual droplets. Cells will remain tightly adhered to well bottoms. Add 100 μl of luciferase detection reagent to each well of the assay plate. Allow the assay plate to rest at room temperature for at least 5 minutes following the addition of LDR. Set the instrument (Envision) to perform a single 5 second “plate shake” prior to reading the first assay well. Read time may be 0.5 second (500 mSec) per well.

Sequence of human FXR (NR1H4) (Q96RI1 whole entry): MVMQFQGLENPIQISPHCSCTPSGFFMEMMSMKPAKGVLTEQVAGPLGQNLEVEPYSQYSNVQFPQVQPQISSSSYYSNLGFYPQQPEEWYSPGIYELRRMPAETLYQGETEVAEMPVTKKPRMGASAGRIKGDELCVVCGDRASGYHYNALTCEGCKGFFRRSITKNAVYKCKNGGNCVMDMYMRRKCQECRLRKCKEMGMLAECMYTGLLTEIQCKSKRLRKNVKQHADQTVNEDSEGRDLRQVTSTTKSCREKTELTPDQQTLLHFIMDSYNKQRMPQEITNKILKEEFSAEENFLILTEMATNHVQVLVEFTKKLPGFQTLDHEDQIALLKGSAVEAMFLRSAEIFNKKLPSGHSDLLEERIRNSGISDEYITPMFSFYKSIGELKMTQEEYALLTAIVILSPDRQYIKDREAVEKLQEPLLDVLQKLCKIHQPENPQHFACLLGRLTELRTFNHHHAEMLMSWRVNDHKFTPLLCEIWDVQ

In the case of `CC[C@H]1[C@@H](O)[C@@H]2[C@H](CC[C@]3(C)[C@@H]([C@H](C)Cc4nc5cccc(C(=O)OC)c5[nH]4)CC[C@@H]23)[C@@]2(C)CC[C@@H](O)C[C@@H]12` [Example 31], the negative logarithm of the EC50 (pEC50) was 5.00 to 6.00 and the Emax turned out to be 34%.
The corresponding values for `CC[C@H]1[C@@H](O)[C@@H]2[C@H](CC[C@]3(C)[C@@H]([C@H](C)Cc4nc5cccc(C(=O)O)c5[nH]4)CC[C@@H]23)[C@@]2(C)CC[C@@H](O)C[C@@H]12` [Example 32] are 5.00 to 6.00 and 24%.
The corresponding values for `CC[C@H]1[C@@H](O)[C@@H]2[C@H](CC[C@]3(C)[C@@H]([C@H](C)CC4CC4c4cccc(C(=O)O)c4)CC[C@@H]23)[C@@]2(C)CC[C@@H](O)C[C@@H]12` (stereo partly shown) [Example 33] are 5.00 to 6.00 and 229%.
On the same counts, the results for `CC[C@H]1[C@@H](O)[C@@H]2[C@H](CC[C@]3(C)[C@@H]([C@H](C)CC4CC4c4ccc(C(=O)O)cc4)CC[C@@H]23)[C@@]2(C)CC[C@@H](O)C[C@@H]12` (stereo partly shown) [Example 34] are 5.00 to 6.00 and 195%.
Consider `CC[C@H]1[C@@H](O)[C@@H]2[C@H](CC[C@]3(C)[C@@H]([C@H](C)CCOc4ccc(F)cc4C(=O)O)CC[C@@H]23)[C@@]2(C)CC[C@@H](O)C[C@@H]12` [Example 35], for which the negative logarithm of the EC50 (pEC50) is 6.00 to 7.00 and the Emax stood at 203%.
